The values below come from patent US9873693B2 (Sunesis Pharmaceuticals, Inc., priority 2006, dated 2018).

pEC50, pIC50: −log10 of the molar value. Like-named read-outs stand apart in the source and are kept apart here.

In experiment [1] the target is phosphorylated PDK1 (Homo sapiens (Human), UniProt O15530). The experiment in a line: PDK1 kinase assay (coupled PDK1/AKT/FAM-crosstide, IMAP). As to conditions: 0.5 nM phosphorylated PDK1, 24 μM ATP; read-out: Inhibition of phospo-PDK1 in vitro IC50. In kind it is biochemical.
Experiment [2] relates to phospho-akt (Thr308). The experiment in a line: phospho-akt (Thr308) MSD ELISA in PC-3 cells. Format: cell-based. As to conditions: for pEC50: read-out: Inhibition of P308 Akt in cells using MSD EC50; for EC50: read-out: Reduction of Cellular Levels of Akt p308 By MSD ELISA (EC50 μM); for inhibition at 1 µM / inhibition at 10 µM: read-out: Percent Inhibition of phospho-Akt (308) By MSD ELISA. How it is done:
PC-3 cells were harvested by trypsin and counted. Cells were plated in coated 96-well flat bottom plates (plate 15,000 cells/well in 100 ul growth media (10% FBS, 1× pen-strep) an place in an incubator overnight.
Subject inhibitors were stocked at 50 mM, then diluted to 30 mM (4.8 μl cpd plus […] DMSO) in 100% DMSO. Three-fold dilutions were performed from 30 mM stock. (4 μl into 8 ul 100% DMSO). Aliquots of 1.0 μl of inhibitor solution were transferred into SF Medium (using deep well block).
Control wells were prepared as follows. For DMSO high controls, 1.0 μl of 100% DMSO was added into 1.0 ml SF.
MSD plates were blocked for 1 hour by adding 150 μl of Blocking Solution (3% BSA) to each well. The MSD plates were washed 4× with TBST, and 50 μl lysates were transferred to MSD plate and place on plate shaker shake at 4 degrees O/N, light shaking (speed 3.5). The plate was washed 4× with TBST.
25 μl of Ab detection solution was added to each well. The plate was sealed and incubated 1 hr RT, light shaking (speed 3.5). The plate was washed 4 times with TBST. 150 μl of Read Buffer was added (5 mls 4×MSD Read Buffer+15 mls water). Finally the plate was read immediately on the MSD plate reader.
On the technique in general: An ELISA detects its analyte on a solid surface through an enzyme-linked reagent.

The mark [3] stands for this setting: Homo sapiens, PC-3, 2 h, PC-3 cells, 2 hours, no serum.

phosphorylated PDK1, sequence (O15530 51-360): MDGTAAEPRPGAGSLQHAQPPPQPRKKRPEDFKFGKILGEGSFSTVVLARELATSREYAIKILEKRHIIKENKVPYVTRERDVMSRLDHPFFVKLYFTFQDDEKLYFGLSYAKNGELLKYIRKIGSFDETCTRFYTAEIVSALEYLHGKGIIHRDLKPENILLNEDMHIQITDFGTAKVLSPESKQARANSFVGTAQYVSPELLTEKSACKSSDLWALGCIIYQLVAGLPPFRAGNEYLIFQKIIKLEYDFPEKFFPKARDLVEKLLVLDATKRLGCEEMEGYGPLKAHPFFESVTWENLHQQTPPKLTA

As for `CCNC(=O)c1cnc2[nH]cc(-c3ccc(CNC(=O)c4cccn(Cc5ccc(F)c(F)c5)c4=O)s3)c2c1` [Cpd 41], in experiment [1], the pIC50 (usually the IC50 on a negative log10 scale, so that one unit is a factor of ten) is over 6.30. In experiment [2] (setting [3]), the negative-log EC50 (pEC50) (in general, the negative decadic logarithm of the EC50, by convention in mol/L) is over 6.00 and the EC50 (usually the concentration at which the effect is half-maximal) is under 1 µM.
For the compound `O=C(O)c1cnc2[nH]cc(-c3cccc(CNC(=O)c4cccn(Cc5ccc(F)c(F)c5)c4=O)c3)c2c1` [Cpd 20], the negative-log IC50 (pIC50) in experiment [1] is over 6.30. For the same compound, the EC50 in experiment [2] (setting [3]) is over 5 µM.
`NCc1cnc2[nH]cc(-c3cccc(CNC(=O)c4cccn(Cc5ccc(F)c(F)c5)c4=O)c3)c2c1` [Cpd 37]: in experiment [1], the negative logarithm of the IC50 (pIC50) is over 6.30. The pEC50 in experiment [2] (PC-3 cells, 2 hours, no serum) is 5.30 to 6.00.
Take `CCCNC(=O)C[C@@H](NC(=O)c1cccn(Cc2ccc(F)c(F)c2)c1=O)c1ccc(-c2c[nH]c3ncccc23)s1` [Cpd 32]: the pIC50 in experiment [1] is over 6.30. Moreover, in experiment [2] (Homo sapiens, PC-3, 2 h), the negative-log EC50 (pEC50) was 5.30 to 6.00 and the concentration giving a half-maximal response (EC50) lay in the range of 1 to 5 µM.
Consider `CC(C)=C1C(=O)Nc2cc(/C=C/CNC(=O)c3cccn(Cc4cc(F)c(F)c(F)c4)c3=O)ccc21` [Cpd 204], for which the pIC50 in experiment [1] is over 6.30. Further, in experiment [2] (setting [3]), the negative logarithm of the EC50 (pEC50) is 5.30 to 6.00.
On the same counts, the results for `O=C(NCc1cccc(-c2c[nH]c3ncc(-c4ccoc4)cc23)c1)c1cccn(Cc2ccc(F)c(F)c2)c1=O` [Cpd 53] are over 6.30 and over 6.00.
Regarding `O=C1Nc2cc(/C=C/CNC(=O)c3cccn(Cc4cc(F)c(F)c(F)c4)c3=O)ccc2/C1=C/c1nccs1` [Cpd 203], the negative logarithm of the IC50 (pIC50) in experiment [1] is over 6.30. Besides, the negative-log EC50 (pEC50) in experiment [2] (setting [3]) is 5.30 to 6.00.
In the case of `Nc1ncccc1-c1ccc(CNC(=O)c2cccn(Cc3ccc(F)c(F)c3)c2=O)s1` [Cpd 97], the pIC50 in experiment [1] is over 6.30. In addition, in experiment [2] (setting [3]), the pEC50 was 5.30 to 6.00.
Taken in the same sequence, the figures for `O=C(NCc1cccc(-c2c[nH]c3ncc(Br)cc23)c1)c1cccn(Cc2ccc(F)c(F)c2)c1=O` [Cpd 330] were over 6.30 and 5.30 to 6.00.
On the same counts, the results for `COC(=O)[C@H](COc1ccc2[nH]c(=O)[nH]c2c1)NC(=O)c1cccn(Cc2cc(F)c(F)c(F)c2)c1=O` [Cpd 153] are over 6.30 and over 6.00.
With `O=C(NCc1ccc(-c2ccc3cn[nH]c3c2)s1)c1cccn(Cc2ccc(F)c(F)c2)c1=O` [Cpd 59], the negative logarithm of the IC50 (pIC50) in experiment [1] is over 6.30. Also, in experiment [2] (setting [3]), the negative logarithm of the EC50 (pEC50) is 5.30 to 6.00.
On the same counts, the results for `O=C(NCc1cccc(-c2c[nH]c3ncc(-c4cccnc4)cc23)c1)c1cccn(Cc2ccc(F)c(F)c2)c1=O` [Cpd 47] are over 6.30 and over 6.00.
In the case of `COCCNC(=O)C[C@@H](NC(=O)c1cccn(Cc2ccc(F)c(F)c2)c1=O)c1ccc(-c2c[nH]c3ncccc23)s1` [Cpd 34], in experiment [1], the pIC50 was over 6.30. Further, in experiment [2] (setting [3]), the pEC50 is 5.30 to 6.00 and the half-maximal effective concentration (EC50) was in the range of 1 to 5 µM.
Taken in the same sequence, the figures for `NCc1cnc2[nH]cc(-c3cccc(CNC(=O)c4cccn(Cc5ccc(F)c(F)c5)c4=O)c3)c2c1` [Cpd 243] were over 6.30, over 6.00 and 1 to 5 µM.
For `O=C(NC/C=C/c1ccc2[nH]c(=O)[nH]c2c1)c1cccn(Cc2ccc(F)c(F)c2)c1=O` [Cpd 160], the pIC50 in experiment [1] was over 6.30. In experiment [2] (setting [3]), the pEC50 is under 5.30.
For the compound `O=C(N[C@H](CO)c1nnc(-c2c[nH]c3ncccc23)o1)c1cccn(Cc2ccc(F)c(F)c2)c1=O` [Cpd 284], the negative-log IC50 (pIC50) in experiment [1] was over 6.30. In experiment [2] (setting [3]), the pEC50 is 5.30 to 6.00 and the EC50 lay in the range of 1 to 5 µM.
Consider `CC(C)Oc1cc(CNC(=O)c2cccn(Cc3ccc(F)c(F)c3)c2=O)cc(-c2c[nH]c3ncccc23)c1` [Cpd 25], for which the pIC50 in experiment [1] is over 6.30. In experiment [2] (Homo sapiens, PC-3, 2 h), the negative-log EC50 (pEC50) was over 6.00 and the EC50 is under 1 µM.
Consider `O=C(NCc1cccc(-c2c[nH]c3cccnc23)c1)c1cccn(Cc2ccc(F)c(F)c2)c1=O` [Cpd 241], for which the pIC50 in experiment [1] was 5.00 to 6.30. In addition, in experiment [2] (Homo sapiens, PC-3 cells), the inhibition (as a rule, how much of the control response was suppressed) at 1 µM was under 25% and the inhibition at 10 µM is 25 to 75%.
In the case of `CN(C)CCOc1cc(CNC(=O)c2cccn(Cc3ccc(F)c(F)c3)c2=O)cc(-c2c[nH]c3ncccc23)c1` [Cpd 60], the pIC50 in experiment [1] is over 6.30. In addition, the pEC50 in experiment [2] (setting [3]) is 5.30 to 6.00.
On the same counts, the results for `O=C1Nc2cc(/C=C/CNC(=O)c3cccn(Cc4ccc(F)c(F)c4)c3=O)ccc2/C1=C\c1cccnc1` [Cpd 200] are over 6.30 and 5.30 to 6.00.
As to `NC(=O)c1cnc2[nH]cc(-c3ccc(CNC(=O)c4cccn(Cc5ccc(F)c(F)c5)c4=O)s3)c2c1` [Cpd 39], the negative-log IC50 (pIC50) in experiment [1] is over 6.30. Besides, in experiment [2] (setting [3]), the pEC50 was over 6.00 and the half-maximal effective concentration (EC50) is under 1 µM.
As to `O=C(NC(COc1ccc2[nH]c(=O)[nH]c2c1)c1ccc(OCc2ccccc2)cc1)c1cccn(Cc2cc(F)c(F)c(F)c2)c1=O` (stereo not shown) [Cpd 186], the negative-log IC50 (pIC50) in experiment [1] is over 6.30. Also, the negative logarithm of the EC50 (pEC50) in experiment [2] (Homo sapiens, PC-3, 2 h) was under 5.30.
For the compound `O=C(NCc1cccc(-c2c[nH]c3ncc(-c4ccsc4)cc23)c1)c1cccn(Cc2ccc(F)c(F)c2)c1=O` [Cpd 331], the pIC50 in experiment [1] is over 6.30. Also, in experiment [2] (setting [3]), the negative logarithm of the EC50 (pEC50) was 5.30 to 6.00.
On to `O=C(NCc1cccc(-c2c[nH]c3ncc(-c4cccs4)cc23)c1)c1cccn(Cc2ccc(F)c(F)c2)c1=O` [Cpd 51], for which the pIC50 in experiment [1] was over 6.30. Moreover, the negative-log EC50 (pEC50) in experiment [2] (setting [3]) was 5.30 to 6.00.
On the same counts, the results for `O=C1Nc2cc(/C=C/CNC(=O)c3cccn(Cc4cc(F)c(F)c(F)c4)c3=O)ccc2/C1=C\c1ccc(O)cc1` [Cpd 201] are over 6.30 and over 6.00.
With `O=C1Nc2cc(/C=C/CNC(=O)c3cccn(Cc4cc(F)c(F)c(F)c4)c3=O)ccc2/C1=C\c1cccnc1` [Cpd 194], the negative logarithm of the IC50 (pIC50) in experiment [1] is over 6.30. For the same compound, the negative logarithm of the EC50 (pEC50) in experiment [2] (setting [3]) is over 6.00.
Consider `O=C(NCc1ccc(-c2c[nH]c3nccc(Cl)c23)s1)c1cccn(Cc2ccc(F)c(F)c2)c1=O` [Cpd 55], for which, in experiment [1], the negative logarithm of the IC50 (pIC50) was over 6.30. Further, the pEC50 in experiment [2] (setting [3]) is 5.30 to 6.00.
Consider `O=C(N[C@@H](/C=C/c1ccc2[nH]c(=O)[nH]c2c1)c1ccccc1)c1cccn(Cc2cc(F)c(F)c(F)c2)c1=O` [Cpd 183], for which the pIC50 in experiment [1] was over 6.30. Moreover, the negative logarithm of the EC50 (pEC50) in experiment [2] (Homo sapiens, PC-3, 2 h) was 5.30 to 6.00.
On the same counts, the results for `N#Cc1cc(-c2c[nH]c3ncccc23)cc(CNC(=O)c2cccn(Cc3ccc(F)c(F)c3)c2=O)n1` [Cpd 191] are over 6.30 and over 6.00.
Turning to `C[C@@H](c1ccc(Cl)cc1)n1cc(Cl)cc(C(=O)NCc2noc(-c3c[nH]c4ncccc34)n2)c1=O` [Cpd 315], the negative logarithm of the IC50 (pIC50) in experiment [1] was over 6.30. For the same compound, the pEC50 in experiment [2] (setting [3]) was over 6.00. In experiment [2] (Homo sapiens, PC-3 cells), the inhibition at 1 µM is 25 to 75% and the inhibition at 10 µM is over 75%.
Regarding `CC(=O)Oc1ccc(C(COc2ccc3[nH]c(=O)[nH]c3c2)NC(=O)c2cccn(Cc3cc(F)c(F)c(F)c3)c2=O)cc1` (stereo not shown) [Cpd 189], in experiment [1], the pIC50 was over 6.30. Moreover, in experiment [2] (setting [3]), the pEC50 is over 6.00.
Regarding `O=C(NCc1cccc(-c2c[nH]c3ncc(Cl)cc23)c1)c1cccn(Cc2ccc(F)c(F)c2)c1=O` [Cpd 22], in experiment [1], the pIC50 is over 6.30. Moreover, in experiment [2] (setting [3]), the negative-log EC50 (pEC50) was 5.30 to 6.00 and the half-maximal effective concentration (EC50) lay in the range of 1 to 5 µM.
Regarding `O=C(N[C@@H](COc1ccc2[nH]c(=O)[nH]c2c1)c1ccccc1)c1cccn(Cc2cc(F)c(F)c(F)c2)c1=O` [Cpd 174], the pIC50 in experiment [1] is over 6.30. Besides, the negative logarithm of the EC50 (pEC50) in experiment [2] (Homo sapiens, PC-3, 2 h) is 5.30 to 6.00.
In the case of `O=C1Nc2cc(/C=C/CNC(=O)c3cccn(Cc4cc(F)c(F)c(F)c4)c3=O)ccc2/C1=C/c1cnc[nH]1` [Cpd 212], the pIC50 in experiment [1] is over 6.30. Besides, the negative logarithm of the EC50 (pEC50) in experiment [2] (setting [3]) was 5.30 to 6.00.
On to `O=C(NCc1cccc(-c2c[nH]c3ncccc23)c1)c1cccn(Cc2ccc(Cl)c(Cl)c2)c1=O` [Cpd 324], for which, in experiment [1], the negative-log IC50 (pIC50) was over 6.30. Moreover, in experiment [2] (setting [3]), the negative logarithm of the EC50 (pEC50) was under 5.30 and the EC50 is over 5 µM.
